Reference: patent US20090068290A1, “BIFEPRUNOX DOSES FOR TREATING SCHIZOPHRENIA” (priority 2006, published 2009)

Key:
Assay type in all cases: in vivo, human
[1] = system: adult subjects with schizophrenia; experiment: PANSS total score, Clinical Study Three (6-week, olanzapine-referenced); details: Olanzapine 15 mg, LOCF, ITT
Experimental: There were four treatment arms in this study, approximately 144 subjects per arm. […] After completing the Single-Blind Placebo Lead-in Period of at least three days, bifeprunox-treated subjects were titrated from 0.25 mg up to 20 mg/day or 30 mg/day according to a standardized titration scheme over a seven- or eight-day period, respectively. When the assigned dose was reached, subjects were maintained at that dose for the remainder of the six week treatment period. […] Subjects were hospitalized (if not already inpatients) after eligibility for study entry was verified, starting from the Screening Visit until at least 10 days after Baseline. Subjects could be hospitalized longer than 10 days if considered medically necessary by the Investigator. Rating scale assessments for efficacy and abnormal movement disorders were done weekly except for Week 5. Safety assessments were performed at Screening, during treatment and at the end of the study. Subject satisfaction with study medication was assessed at Week 6. Samples of whole blood were obtained at Weeks 2, 4, and 6 for determination of bifeprunox in plasma.
Test Product, Dose and Mode of Administration: Bifeprunox tablets, total daily dose 20 mg or 30 mg (one 20 mg tablet and one 10 mg tablet) administered orally using a once daily dosing regimen.

[2] = system: adult subjects with schizophrenia; experiment: PANSS general psychopathology subscale score, Clinical Study Three; details: LOCF; for Change from Baseline in PASS General Psychopathology Subscale Score, Mean (SD) / Change from Baseline in PASS General Psychopathology Subscale Score, Median: Olanzapine 15 mg, ITT population
Description: SECONDARY OBJECTIVES To assess the efficacy of bifeprunox in treating schizophrenia using the Positive Symptom sub-scale score of the PANSS, the Negative Symptom sub-scale score of the PANSS, the General Psychopathology sub-scale of the PANSS, Brief Psychiatric Rating Scale (BPRS) total score derived from the PANSS, BPRS psychosis score derived from the PANSS, the Clinical Global Impression Severity of Illness score (CGI-S), the Clinical Global Impression Improvement score (CGI-I), CGI-I responder rate, PANSS responder rate based on the PANSS total score, Calgary Depression Scale for Schizophrenia (CDSS), and Subject Satisfaction rating.
There were four treatment arms in this study, approximately 144 subjects per arm. […] After completing the Single-Blind Placebo Lead-in Period of at least three days, bifeprunox-treated subjects were titrated from 0.25 mg up to 20 mg/day or 30 mg/day according to a standardized titration scheme over a seven- or eight-day period, respectively. When the assigned dose was reached, subjects were maintained at that dose for the remainder of the six week treatment period. […] Subjects were hospitalized (if not already inpatients) after eligibility for study entry was verified, starting from the Screening Visit until at least 10 days after Baseline. Subjects could be hospitalized longer than 10 days if considered medically necessary by the Investigator. Rating scale assessments for efficacy and abnormal movement disorders were done weekly except for Week 5. […] Subject satisfaction with study medication was assessed at Week 6.

[3] = system: adult subjects with schizophrenia; experiment: PANSS total score, Clinical Study One (6-week, risperidone-referenced); details: for Change from Baseline in PANSS Total Score, Median / Change from Baseline in PANSS Total Score, Mean (S.D.): Risperidone 6 mg, ITT
Experimental: There were five treatment groups in this study. […] Study medication was administered once daily. After Baseline measurements were performed, the titration phase was begun. Bifeprunox treated subjects were titrated up to 5 mg, 10 mg or 20 mg according to a standardized titration schedule (Day 1: 0.125 mg, Day 2: 0.25 mg, Day 3: 0.5 mg, Day 4: 1.0 mg, Day 5: 2.0 mg, Day 6: 5.0 mg, Day 7: 10.0 mg, Day 8: 20 mg). When the assigned dose was reached, subjects were maintained at that dose for the remainder of the six-week treatment period.
Test Product. Dose and Mode of Administration: Bifeprunox tablets, total daily dose 0.125 mg to 20 mg administered orally using a once daily dosing regimen.
The change in the Positive and Negative Symptom Scale (PANSS) total score, from baseline to endpoint, was the primary outcome measure. Secondary efficacy measures included: PANSS positive, PANSS negative, PANSS general psychopathology (GPP) score, PANSS-derived Brief Psychiatric Rating Scale (BPRS) score, Clinical Global Impressions-Severity of Illness (CGI-S), CGI-Improvement (CGI-I) scores, and responder rates. Safety and tolerability evaluations included extrapyramidal symptoms (EPS), weight gain, lipid profile, and serum prolactin.

[4] = system: adult subjects with schizophrenia; experiment: Calgary Depression Scale for Schizophrenia (CDSS), Clinical Study Two; details: LOCF; for Change from Baseline in CDSS Total Score, Mean (SD) / Change from Baseline in CDSS Total Score, Median: 6 mg
Experimental: Rating scale assessments were performed weekly, except for week 5, to measure the change from baseline to endpoint of the PANSS total score. Other assessments included: PANSS positive symptom subscale score, PANSS negative symptom subscale score, PANSS general pschopathology subscale score, BPRS total score, BPRS psychosis score, the CGI-S score, the CGI-I score, responder rates based on the PANSS total score, and the Calgary Depression Scale for Schizophrenia (CDSS). […]
Subjects who completed this study had the option to continue in the long-term. […] Risperidone-treated subjects were titrated from 2 mg to 6 mg daily over a three-day period and were subsequently maintained at 6 mg/day for the remainder of the treatment period. […] Blood samples were also obtained at Screening/Baseline, Week 3, and Week 6 for clinical laboratory assessments.

Cc1cc2c(s1)Nc1ccccc1N=C2N1CCN(C)CC1 [Olanzapine, olanzapine, reference compound]
Change from Baseline in PANSS Total Score, Mean (SD) ([1]; Week 1): −9.3 (11.2)
Change from Baseline in PANSS Total Score, Median ([1]; Week 1): −6
Change from Baseline in PANSS Total Score, Mean (SD) ([1]; Week 2): −15.1 (13.6)
Change from Baseline in PANSS Total Score, Median ([1]; Week 2): −12
Change from Baseline in PANSS Total Score, Mean (SD) ([1]; Week 3): −19.3 (15.8)
Change from Baseline in PANSS Total Score, Median ([1]; Week 3): −18
Change from Baseline in PANSS Total Score, Mean (SD) ([1]; Week 4): −20.0 (16.5)
Change from Baseline in PANSS Total Score, Median ([1]; Week 4): −18
Change from Baseline in PANSS Total Score, Mean (SD) ([1]; Week 6/Endpoint): −22.0 (18.2)
Change from Baseline in PANSS Total Score, Median ([1]; Week 6/Endpoint): −21
Change from Baseline in PASS General Psychopathology Subscale Score, Mean (SD) ([2]; Week 1): −4.5 (6.2)
Change from Baseline in PASS General Psychopathology Subscale Score, Median ([2]; Week 1): −3
Change from Baseline in PASS General Psychopathology Subscale Score, Mean (SD) ([2]; Week 2): −7.2 (7.8)
Change from Baseline in PASS General Psychopathology Subscale Score, Median ([2]; Week 2): −6
Change from Baseline in PASS General Psychopathology Subscale Score, Mean (SD) ([2]; Week 3): −9.3 (8.3)
Change from Baseline in PASS General Psychopathology Subscale Score, Median ([2]; Week 3): −8
Change from Baseline in PASS General Psychopathology Subscale Score, Mean (SD) ([2]; Week 4): −9.6 (8.6)
Change from Baseline in PASS General Psychopathology Subscale Score, Median ([2]; Week 4): −9
Change from Baseline in PASS General Psychopathology Subscale Score, Mean (SD) ([2]; Week 6/Endpoint): −10.5 (9.4)
Change from Baseline in PASS General Psychopathology Subscale Score, Median ([2]; Week 6/Endpoint): −9
mean change (SD) from Baseline to Endpoint in PANSS general psychopathology subscale score ([2]; olanzapine 15 mg, ITT): −10.5 (9.4)

Cc1nc2n(c(=O)c1CCN1CCC(c3noc4cc(F)ccc34)CC1)CCCC2 [Risperidone, risperidone, reference compound]
Change from Baseline in PANSS Total Score, Median ([3]; Endpoint LOCF): −14
Change from Baseline in PANSS Total Score, Mean (S.D.) ([3]; Week 1, LOCF): −8.2 (11.1)
Change from Baseline in PANSS Total Score, Median ([3]; Week 1, LOCF): −7
Change from Baseline in PANSS Total Score, Mean (S.D.) ([3]; Week 2, LOCF): −13.1 (13.9)
Change from Baseline in PANSS Total Score, Median ([3]; Week 2, LOCF): −12
Change from Baseline in PANSS Total Score, Mean (S.D.) ([3]; Week 3, LOCF): −15.3 (14.1)
Change from Baseline in PANSS Total Score, Median ([3]; Week 3, LOCF): −13
Change from Baseline in PANSS Total Score, Mean (S.D.) ([3]; Week 4, LOCF): −14.4 (14.5)
Change from Baseline in PANSS Total Score, Median ([3]; Week 4, LOCF): −13
all efficacy measures at endpoint compared to placebo ([3]; risperidone 6 mg (Example 4)): statistically significant at endpoint compared to placebo for all efficacy measures
separation of active reference from placebo ([3]; risperidone 6 mg, 6 weeks): showed clear separation from the placebo group
Change from Baseline in CDSS Total Score, Mean (SD) ([4]; Week 1): −0.62 (2.42)
Change from Baseline in CDSS Total Score, Median ([4]; Week 1): 0.0
Change from Baseline in CDSS Total Score, Mean (SD) ([4]; Week 2): −0.74 (2.71)
Change from Baseline in CDSS Total Score, Median ([4]; Week 2): 0.0
Change from Baseline in CDSS Total Score, Mean (SD) ([4]; Week 3): −0.93 (3.41)
Change from Baseline in CDSS Total Score, Median ([4]; Week 3): 0.0
Change from Baseline in CDSS Total Score, Mean (SD) ([4]; Week 4): −0.95 (3.08)
Change from Baseline in CDSS Total Score, Median ([4]; Week 4): 0.0
Change from Baseline in CDSS Total Score, Mean (SD) ([4]; Week 6/Endpoint): −0.89 (3.42)
Change from Baseline in CDSS Total Score, Median ([4]; Week 6/Endpoint): 0.0
mean change (SD) from Baseline to Endpoint in CDSS score ([4]; risperidone 6 mg, ITT): −0.89 (3.42)
